Test results taken from patent publication US9265789B2, “Targeting CLPTM1L by RNA interference for treatment and prevention of cancer” (The Medical College of Wisconsin, Inc., priority 2013, dated 2016).

B1: shTERT1: lentiviral shRNA vector targeting TERT (oligos SEQ ID NO: 28/29), used as additional control (nucleic acid)
sense: CCGGAAGTCTGCCGTTGCCCAAGAGCTCGAGCTCTTGGGCAACGGCAGACTTTTTTT
antisense: AATTAAAAAAACTGCATCCAGCCCTATCTGCTCGAGCAGATAGGGCTGGATGCAGTT

Columns and labels:
3T3 mouse fibroblasts = test: Transformation assay (morphology, foci) in Ras-transfected 3T3 fibroblasts; type: cell-based
Description: (§1) NIH3T3 cells acquired within the last 6 months from ATCC were cultured in DMEM 10% FBS to 80% confluence before co-transfecting with the indicated expression and shRNA vectors using Lipofectamine LTX (Invitrogen, Carlsbad, Calif.). Cells were split, allowed to attach and placed on puromycin selection for 3 days or until mock transfected cells were dead. Cells were plated at the indicated densities and fed as needed. For whole plate staining, cells were fixed in cold methanol and stained with crystal violet. For anchorage independent growth, cell were suspended in 0.4% agarose in complete growth media and plate over 0.8% bottom agar at 10,000 cells per well (H-Ras) or 20,000 cells per well (K-Ras) of a six-well tissue culture dish in triplicate. Cells were fed twice a week over 4 weeks in culture, and colonies were stained using cell staining reagent and protocol from Millipore's Cell Transformation Detection Assay. Images of wells were captured and analyzed by Image J software to count colonies. P-values were determined using a two-tailed Student's T-Test.

[1] = tested on: Spon8 mouse lung tumor cells; test: Viability assay (MTS) after cisplatin treatment; type: cell-based; conditions: 20 μM cisplatin for 48 hours; compared to vector and sh1; p=9.6E-6
Description: Cells stably expressing shRNA vectors as described above were seeded onto 12-well tissue culture dishes at equal densities of approximately 50% in triplicate. After attachment overnight followed by 48 hours of treatment with the indicated concentrations of cisplatin (Sigma, St. Louis, Mo.) dissolved in media. DMSO concentrations in culture media were kept consistent and were at or below 0.08%. Cell viability was measured by Cell Titer 96 Aqueous One Solution Cell Proliferation Assay (MTS) in triplicate. P-values were determined by one-tailed Student's T-Test.

[2] = tested on: Ras transformed 3T3 cells; test: Soft agar anchorage independent growth assay; type: cell-based, mouse
Description: as §1

CLPTM1L transcript = CLPTM1L transcript knockdown by RT-quantitative real-time PCR in Spon8 cells; type: cell-based; conditions: Spon8 mouse lung tumor cells; qPCR normalized to beta-Actin
Description: Spon8 cells were cultured in RPMI1640 plus 2% FBS (Invitrogen, Carlsbad, Calif.). Cells were transduced with lentiviral short-hairpin RNA (shRNA) vectors based on the pLKO.1 vector and designed to specifically target human CLPTM1L transcript (Sigma, St. Louis). Empty vector or vector knocking down CLPTM1L transcript were first packaged in 293T cells (Orbigen, San Diego, Calif.) by transfection with helper plasmids using Lipofectamine LTX (Invitrogen, Carlsbad, Calif.) and then transduced into Spon 8 cells with 8 μg/ml Polybrene (Sigma, St. Louis, Mo.). Media was replaced 24 hours after transduction, and cells were split 1:4 48 hours after transduction. […]
Patient matched tumor and tumor-adjacent normal RNA samples were obtained from the Tissue Procurement Core at Washington University in St. Louis under protocol approved by the Institutional Review Board at Washington University in St. Louis School of Medicine, Human Research Protection Office. […] Quantitative real-time PCR (qPCR) was conducted using the method as described previously (Chaparro, Wen et al. 2005). […] Quantitative RT-PCR assay was done using the SYBR Green PCR Master Mix (Applied Biosystems, Foster City, Calif.). […] Data were collected and analyzed with Stratagene Mx3000 software. […] Primer set efficiency and linearity was calculated, and normalization was performed in accordance with MIQE guidelines. […]

[3] = tested on: phosphorylated (T308) Akt; test: Western blotting for phosphorylated (T308) Akt in NIH3T3 cells with K-RasV12 expression; type: cell-based, mouse; conditions: NIH3T3 cells expressing K-RasV12, CLPTM1L stably depleted
Description: (§2) The indicated cell lines were treated with cisplatin at the indicated concentrations on 6-well plates for 72 hours. Cells were lysed with 100 μl of 1× NP40 lysis buffer containing proteinase inhibitors, sheared 10 times with a 28 gauge needle, spun at 16,000×g for 30 minutes, normalized by protein concentration as determined by the Bradford method, and the supernatant boiled for 5 minutes. 20 μl of normalized lysate was resolved by SDS-PAGE and immunoblotting analyzed with indicated antibodies. […] Quantitation of Western analyses of three independent cultures was done using Image J software available online from the National Institutes of Heath at rsbweb.nih.gov on the World Wide Web.
(§3) NIH3T3 cells acquired within the last 6 months from ATCC were cultured in DMEM 10% FBS to 80% confluence before co-transfecting with the indicated expression and shRNA vectors using Lipofectamine LTX (Invitrogen, Carlsbad, Calif.). […] Images of wells were captured and analyzed by Image J software to count colonies. P-values were determined using a two-tailed Student's T-Test.

[4] = tested on: oncogenic K-Ras driven lung tumors; test: shRNA/K-Ras LSL-G12D/+ mouse model of lung tumorigenesis; type: in vivo; conditions: for inhibition of tumor number / inhibition of tumor load: vs scrambled shRNA
Description: Mouse experiments were conducted as described by DuPage et al., Nat. Protoc. 4:1064 (2009), with the following modifications. pLKO.1 empty shRNA vector was obtained from Open Biosystems (Foster City, Calif.). Short hairpin inserts were designed to specifically target transcripts. Oligos were ordered from IDT (Coralville, Iowa). Complimentary oligos were heated to 95° C., cooled to room temperature overnight and ligated into digested pLKO.1. Validated constructs used in mouse experiments had the following short-hairpin sequences:
Vectors were modified by replacing the PGK promoter and puromycin resistance orf with the CMV promoter driving expression of CRE-GFP. CMV promoter was sub-cloned from pLenti CMV GFP Puro plasmid #17448 (Addgene) and CRE-GFP was sub-cloned from pCAG:CRE-GFP plasmid #13776 (Addgene). Virus was packaged in 293T cells and functionally titered by infecting 3TZ cells (LSL-LacZ), which express LacZ upon Cre recombinase activation. Mice were anesthetized with 200 μL Avertin ([…]). 10^^4 or 10^^3 active virus particles in 50 μl of phosphate buffered saline was delivered via intratracheal intubation using a 22-gauge IV catheter under general anesthesia to 10 transgenic mice per group (LSL-K-RasG12D (Mouse Models of Human Cancers Consortium (MMHCC) Strain 01XJ6, Jackson Laboratory #008179 (B6), #008180 (129)). […] The thoracic cavity was surgically opened to expose the lungs. The trachea was cannulated with a 22G catheter and lungs were inflated with Tellyesniczky's solution (70% ethanol, 2% formaldehyde, and 5% acetic acid) at 25 cm of pressure by gravity. Lungs were fixed overnight and the solution was exchanged to 70% ethanol the next day. Lungs were photographed, lobes were separated and cleaned. Tumors were counted and measured with digital calipers. A cutoff for visible tumors of 0.2 mm diameter was used. Tumor volume was determined by the following formula: A=4/3πr^3. P-values were determined using a two-tailed Student's T-Test.

Bcl-xL [5] = test: Bcl-xL protein accumulation by western blot in Spon8 cells; type: cell-based, mouse
Description: The indicated cell lines were treated with cisplatin at the indicated concentrations on 6-well plates for 72 hours. Cells were lysed with 100 μl of 1× NP40 lysis buffer containing proteinase inhibitors, sheared 10 times with a 28 gauge needle, spun at 16,000×g for 30 minutes, normalized by protein concentration as determined by the Bradford method, and the supernatant boiled for 5 minutes. 20 μl of normalized lysate was resolved by SDS-PAGE and immunoblotting analyzed with indicated antibodies. The following antibodies were used: rabbit anti-CLPTM1L (Novus Biologicals, Littleton, Colo.), mouse anti-Actin (Santa Cruz Biotechnology, Santa Cruz, Calif.), mouse anti-Bcl2 clone 124 (Dako, Carpinteria, Calif.), rabbit anti-Bax #2774 (Cell Signaling, Boston, Mass.), mouse anti-p53 (Ab-1) (Oncogene, San Diego, Calif.), Bcl-xL-rabbit Bcl2L1 (AbCam, Cambridge, Mass.), rabbit anti-H-Ras (Novus Biologicals, Littleton, Colo.), mouse anti-K-Ras(BD Transduction Labs, Franklin, N.J.), anti-Akt(Cell Signaling, Boston, Mass.), antipAKT(Thr308)(Cell Signaling, Boston, Mass.), rabbit anti-PIK3C3 (Cell Signaling, Boston, Mass.), rabbit anti-BAD(AbCam, Cambridge, Mass.). Quantitation of Western analyses of three independent cultures was done using Image J software available online from the National Institutes of Heath at rsbweb.nih.gov on the World Wide Web.

Bcl-xL [6] = test: Western blotting for Bcl-xL in NIH3T3 cells with K-RasV12 expression; type: cell-based, mouse
Description: as §2, §3

TERT transcript = TERT transcript knockdown in Spon8 cells; type: cell-based; conditions: Spon8 mouse lung tumor cells
[7] = high dose group 10^4 functional particles intratracheal, 24 weeks
[8] = low dose group 10^3 particles, 28 weeks post-infection

| Molecule | transformed phenotype (foci) on stable co-transfection with H-RasV12 or K-RasV12 (3T3 mouse fibroblasts) | morphological changes with shRNA alone compared to vector controls (3T3 mouse fibroblasts; no Ras) | sensitivity to cisplatin-induced killing (MTS viability) [1] | average colonies per well in soft agar ([2]; H-RasV12 expressing 3T3 cells, 10,000 cells per well, control 18 colonies, p<0.03) | inhibition of soft agar colony formation ([2]; K-RasV12 transformed 3T3 cells, 20,000 cells per well, control 56 colonies per well, p<0.02) | knockdown of CLPTM1L at the transcript level (CLPTM1L transcript) | K-RasV12 induced elevation of phospho-Akt [3] | average tumor load [4, 7] | average tumor number [4, 7] | inhibition of tumor number ([4]; high dose group, p=0.02) | inhibition of tumor load ([4]; high dose group, p=0.03) | average tumor load [4, 8] | average tumor number [4, 8] | inhibition of tumor load ([4]; low dose group, p<0.002) | inhibition of tumor number ([4]; low dose group, p<0.004) | Bcl-xL expression upon CLPTM1L depletion (Bcl-xL [5]) | K-RasV12 induced elevation of Bcl-xL (Bcl-xL [6]; NIH3T3 cells expressing K-RasV12, CLPTM1L stably depleted) | Bcl-xL expression with loss of CLPTM1L (Bcl-xL [6]; NIH3T3 mouse fibroblasts, western blotting) | knockdown of TERT at the transcript level (TERT transcript) | tumor number and load compared with scrambled control ([4]; high dose group, p=0.58) |
| --- | --- | --- | --- | --- | --- | --- | --- | --- | --- | --- | --- | --- | --- | --- | --- | --- | --- | --- | --- | --- |
| shCLP168m: shRNA targeting CLPTM1L, mature sense strand AACTGCATCCAGCCCTATCTG (SEQ ID NO: 4), pLKO.1 lentiviral vector | no transformed foci were observed | did not demonstrate morphological changes | increased sensitivity to cisplatin | one | 47% | 80% | ablated | 3.4 mm^3 | 46 tumors per mouse | 60% | 74% | 0.01 mm^3 | 0.14 tumors | 98% | 98% | concurrently reduced | ablated | decrease in Bcl-xL expression |  |  |
| B1 |  |  |  |  |  |  |  | 10.2 mm^3 | 122 tumors per mouse |  |  | 0.41 mm^3 | 5 tumors |  |  |  |  |  | 50% | statistically similar to the control group |
